# Measurements taken from ChEMBL document CHEMBL1201862, “PubChem BioAssay data set” (2004).
# Where “and” joins values, the source holds several entries; their conditions need not be identical. Equal entries are not always repeated. Calls of active or inactive are those of the source.
# What was measured:
# Cytochrome P450 2C9 = Cytochrome P450 2C9 (Homo sapiens, UniProt P11712)
# Cytochrome P450 2D6 = Cytochrome P450 2D6 (Homo sapiens, UniProt P10635);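 further: CYP2D6 member of a cytochrome P450 panel assay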
# Escherichia coli [1] = assay: microbe, parasite or virus in culture
# Escherichia coli [2] = assay: microbe, parasite or virus in culture; remark: listed apart in the source
# [3] = HPDE-C7 pancreatic duct cell viability loss – fluorescence, HTS (AID 430); format: functional, cell-based; settings: Homo sapiens
# [4] = viability loss of HPDE-C7K cells – cell-based, fluorescence, HTS, primary screen (AID 431); format: functional; settings: Homo sapiens
# [5] = loss of viability in HepG2 cells – cell-based, CellTiter-Glo, cherry-picked, cytotoxicity control for Shn3 inhibitor project, dose response (AID 624134); format: functional
# [6] = reduction of Shn3 3'UTR-driven luciferase in osteoblasts – cell-based, Clone20 osteoblasts, firefly luciferase, cherry-picked, dose response (AID 624132); format: functional;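 further: firefly luciferase luminescence from reporter carrying the Shn3 3'UTR in osteoblasts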
# Tumor necrosis factor = Tumor necrosis factor (Homo sapiens, UniProt P01375); assay: analog potency on TNFa NF-kB signaling – cell-based, revised, SAR follow-up (AID 2337); format: functional
# [7] = target: T1, COUP transcription factor 2 (Homo sapiens, UniProt P24468); assay: Luminescence-based cell-based high throughput dose response assay to identify inhibitors of COUP-TFII (NR2F2).; format: functional;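 further: HEK293 cells transiently cotransfected with COUP-TFII expression vector and reporter; luciferase reporter luminescence driven by COUP-TFII from the pX2-168 reporter plasmid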
# T1 sequence (P24468 whole entry): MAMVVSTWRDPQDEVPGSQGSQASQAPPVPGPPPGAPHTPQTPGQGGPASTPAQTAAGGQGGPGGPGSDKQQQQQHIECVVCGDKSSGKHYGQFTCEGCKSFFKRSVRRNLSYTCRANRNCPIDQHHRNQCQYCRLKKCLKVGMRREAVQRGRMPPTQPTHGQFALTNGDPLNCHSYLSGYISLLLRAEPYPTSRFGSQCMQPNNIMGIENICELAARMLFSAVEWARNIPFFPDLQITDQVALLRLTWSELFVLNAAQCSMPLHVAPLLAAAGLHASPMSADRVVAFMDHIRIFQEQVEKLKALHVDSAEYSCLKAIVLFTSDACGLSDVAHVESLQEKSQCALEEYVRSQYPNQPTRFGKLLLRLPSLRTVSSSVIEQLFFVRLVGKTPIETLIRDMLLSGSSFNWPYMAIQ
# HEK293 [8] = assay: NOD2 signaling inhibitors in MDP-stimulated cells, cell-based, uHTS, luminescence (AID 2001); format: functional; settings: Homo sapiens
# [9] = target: T2, Nucleotide-binding oligomerization domain-containing protein 1 (Homo sapiens, UniProt Q9Y239); assay: blockers of NOD1 pathway activity – revised, SAR follow-up (AID 2333); format: functional
# T2 sequence (Q9Y239 whole entry): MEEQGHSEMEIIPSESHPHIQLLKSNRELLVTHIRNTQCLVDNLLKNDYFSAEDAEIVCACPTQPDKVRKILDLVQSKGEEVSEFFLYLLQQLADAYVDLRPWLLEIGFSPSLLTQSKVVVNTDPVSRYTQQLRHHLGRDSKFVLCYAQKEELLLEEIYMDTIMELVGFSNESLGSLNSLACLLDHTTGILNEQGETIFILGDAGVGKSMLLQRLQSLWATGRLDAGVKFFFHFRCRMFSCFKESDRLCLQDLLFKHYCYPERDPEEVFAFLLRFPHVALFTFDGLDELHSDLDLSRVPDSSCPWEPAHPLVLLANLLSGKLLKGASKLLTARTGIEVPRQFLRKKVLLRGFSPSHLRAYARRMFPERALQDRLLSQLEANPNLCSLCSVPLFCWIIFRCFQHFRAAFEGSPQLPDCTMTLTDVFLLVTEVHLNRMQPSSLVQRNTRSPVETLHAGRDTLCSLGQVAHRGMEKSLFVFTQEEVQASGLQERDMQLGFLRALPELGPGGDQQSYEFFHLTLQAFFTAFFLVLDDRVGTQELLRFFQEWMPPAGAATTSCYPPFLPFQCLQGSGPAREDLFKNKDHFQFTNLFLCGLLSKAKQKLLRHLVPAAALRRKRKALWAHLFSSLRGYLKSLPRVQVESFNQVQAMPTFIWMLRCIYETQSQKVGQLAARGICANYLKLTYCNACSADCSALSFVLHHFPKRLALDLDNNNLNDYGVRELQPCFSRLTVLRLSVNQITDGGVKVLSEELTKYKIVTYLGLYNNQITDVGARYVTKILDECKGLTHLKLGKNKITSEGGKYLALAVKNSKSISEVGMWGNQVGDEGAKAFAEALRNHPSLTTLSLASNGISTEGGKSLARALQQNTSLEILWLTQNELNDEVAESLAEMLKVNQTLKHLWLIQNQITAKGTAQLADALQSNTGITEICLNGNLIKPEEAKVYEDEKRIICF
# HEK293 [10] = assay: inhibition of NOD1-driven NF-kB reporter – cell-based, luminescence, uHTS, primary screen (AID 1578); format: functional; settings: Homo sapiens
# [11] = non-specific 3'UTR reporter inhibition in Clone20-Shn3RL – cell-based, Renilla luciferase, cherry-picked, counter-screen for Shn3 inhibitor project, dose response (AID 624133); format: functional
# INS1 = assay: INS-1E survival protection against cytokine death – cell-based, luminescence, retest, dose response (AID 449756); format: functional; settings: Rattus norvegicus;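 further: cell death triggered by IL-1 beta plus TNF-alpha plus IFN-gamma mixture; protective hits raise ATP signal compared with cytokine alone wells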
# [12] = target: Nucleotide-binding oligomerization domain-containing protein 2 (Homo sapiens, UniProt Q9HC29); assay: inhibition of NOD2-driven NF-kB reporter – cell-based, luminescence, uHTS, HEK293 (AID 1566); format: functional
# HEK293 [13] = assay: cells; settings: Homo sapiens
# HEK293 [14] = assay: cells; format: functional, cell-based; settings: Homo sapiens
# [15] = HEK-293T viability loss, compound-treated – cell-based, uHTS hits, cytotoxicity control for B/T-cell NF-kB inhibitor project, dose response (AID 489019); format: functional;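 further: IC50 reflects cytotoxicity as loss of cell viability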
# Jurkat = assay: blockers of NF-kB activation in T cells – Jurkat, luciferase reporter, luminescence, B- and T-cell, dose response (AID 489004); format: functional, cell-based; settings: Homo sapiens;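 further: NF-kB luciferase reporter Jurkat cells stimulated with PMA plus ionomycin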
# HEK293 [16] = assay: cells; format: functional, cell-based; settings: Homo sapiens; remark: listed apart in the source
# HEK293 [17] = assay: cells; format: functional, cell-based; settings: Homo sapiens; remark: listed apart in the source
# Chain of Tumor necrosis factor (P01375 whole entry): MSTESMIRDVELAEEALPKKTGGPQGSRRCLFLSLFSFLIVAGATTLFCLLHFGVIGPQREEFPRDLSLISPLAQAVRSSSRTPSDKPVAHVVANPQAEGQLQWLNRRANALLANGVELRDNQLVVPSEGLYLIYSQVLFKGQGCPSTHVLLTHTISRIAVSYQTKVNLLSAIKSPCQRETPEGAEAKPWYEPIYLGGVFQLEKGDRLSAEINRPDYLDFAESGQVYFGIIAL
# Chain of Cytochrome P450 2D6 (P10635 whole entry): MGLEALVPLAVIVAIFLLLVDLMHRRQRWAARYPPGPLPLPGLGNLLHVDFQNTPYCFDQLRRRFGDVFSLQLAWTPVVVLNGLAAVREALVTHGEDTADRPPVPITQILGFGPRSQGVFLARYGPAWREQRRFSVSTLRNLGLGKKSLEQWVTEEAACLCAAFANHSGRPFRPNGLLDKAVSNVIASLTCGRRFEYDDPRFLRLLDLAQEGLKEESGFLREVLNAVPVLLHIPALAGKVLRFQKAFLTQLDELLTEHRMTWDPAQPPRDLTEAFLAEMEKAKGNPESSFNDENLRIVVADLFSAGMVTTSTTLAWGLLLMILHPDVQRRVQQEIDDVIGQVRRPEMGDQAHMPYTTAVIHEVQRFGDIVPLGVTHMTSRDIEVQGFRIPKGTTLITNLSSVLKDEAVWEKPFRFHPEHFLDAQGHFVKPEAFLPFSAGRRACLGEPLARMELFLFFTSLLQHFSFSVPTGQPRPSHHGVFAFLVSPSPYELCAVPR
# Chain of Cytochrome P450 2C9 (P11712 whole entry): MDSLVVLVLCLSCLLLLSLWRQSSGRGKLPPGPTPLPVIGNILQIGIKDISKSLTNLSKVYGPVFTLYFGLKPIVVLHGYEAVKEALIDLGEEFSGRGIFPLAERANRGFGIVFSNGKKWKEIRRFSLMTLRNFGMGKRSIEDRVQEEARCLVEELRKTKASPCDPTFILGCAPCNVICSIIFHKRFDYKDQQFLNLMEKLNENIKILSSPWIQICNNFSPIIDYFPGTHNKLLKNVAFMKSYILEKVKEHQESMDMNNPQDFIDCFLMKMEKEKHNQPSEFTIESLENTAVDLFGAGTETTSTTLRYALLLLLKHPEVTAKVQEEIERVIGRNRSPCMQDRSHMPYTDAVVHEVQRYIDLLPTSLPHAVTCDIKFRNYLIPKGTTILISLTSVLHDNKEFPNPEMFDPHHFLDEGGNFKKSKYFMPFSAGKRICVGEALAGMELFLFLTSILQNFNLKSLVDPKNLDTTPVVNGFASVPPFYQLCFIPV
# Chain of Nucleotide-binding oligomerization domain-containing protein 2 (Q9HC29 whole entry, the tested form may be a part): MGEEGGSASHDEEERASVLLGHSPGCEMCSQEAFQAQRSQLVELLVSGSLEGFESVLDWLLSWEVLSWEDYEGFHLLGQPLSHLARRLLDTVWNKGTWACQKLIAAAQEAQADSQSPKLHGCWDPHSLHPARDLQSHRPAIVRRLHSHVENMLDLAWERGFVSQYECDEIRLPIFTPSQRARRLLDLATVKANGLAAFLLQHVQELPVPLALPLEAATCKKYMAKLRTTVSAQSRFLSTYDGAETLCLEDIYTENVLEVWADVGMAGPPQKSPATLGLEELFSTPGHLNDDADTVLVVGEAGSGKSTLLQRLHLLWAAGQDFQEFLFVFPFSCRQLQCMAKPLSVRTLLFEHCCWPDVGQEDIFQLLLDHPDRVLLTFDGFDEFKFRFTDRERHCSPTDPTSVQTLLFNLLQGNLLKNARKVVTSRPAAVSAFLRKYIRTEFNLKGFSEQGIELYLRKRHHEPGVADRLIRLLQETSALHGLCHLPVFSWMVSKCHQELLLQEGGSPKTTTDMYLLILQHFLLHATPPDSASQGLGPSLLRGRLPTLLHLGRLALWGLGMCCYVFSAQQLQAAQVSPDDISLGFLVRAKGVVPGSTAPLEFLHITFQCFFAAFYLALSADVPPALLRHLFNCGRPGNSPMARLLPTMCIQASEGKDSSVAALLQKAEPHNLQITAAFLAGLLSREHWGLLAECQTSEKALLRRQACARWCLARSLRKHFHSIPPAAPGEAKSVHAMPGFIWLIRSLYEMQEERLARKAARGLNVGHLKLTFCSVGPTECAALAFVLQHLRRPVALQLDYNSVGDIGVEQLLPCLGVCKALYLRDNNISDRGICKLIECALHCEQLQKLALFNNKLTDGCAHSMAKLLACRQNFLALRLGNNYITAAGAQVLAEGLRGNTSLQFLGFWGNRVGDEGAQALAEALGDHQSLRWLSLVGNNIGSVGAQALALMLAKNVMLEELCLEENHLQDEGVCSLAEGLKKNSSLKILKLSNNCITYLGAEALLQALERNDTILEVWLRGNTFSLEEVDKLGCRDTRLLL
compound,measurement,setting,value
CC(C)c1ccc(C(O)(C(=O)O)c2ccc(C(C)C)cc2)cc1,AC50,Cytochrome P450 2C9,3.98 µM (inconclusive)
same,AC50,Cytochrome P450 2D6,inconclusive
CCOC(=O)CC(=O)Nc1ccccc1C(=O)O,AC50,Escherichia coli [1],27 µM (active)
CC(C)CCNC(=O)c1c(N)n(CC2CCCO2)c2nc3ccccc3nc12 (configuration not stated),AC50,Escherichia coli [2],16.3 µM (active)
same,EC50,[3],13.2 µM (active)
same,EC50,[4],13.6 µM (active)
Cn1nccc1C(=O)NC1CCCc2c1cnn2-c1ccccc1F (configuration not stated),AC50,[5],0.472 µM (active)
same,AC50,[6],0.37 µM (active)
same,IC50,Tumor necrosis factor,4.28 µM (active) and 14.6 µM (active)
same,IC50,[7],1.51 µM (active)
same,IC50,HEK293 [8],2.71 µM (active)
same,IC50,[9],968 nM (active) and 825 nM (active)
same,EC50,HEK293 [10],0.62 µM (active)
same,AC50,[11],3.96 µM (active)
same,AC50,INS1,2.26 µM (active)
same,EC50,[12],0.61 µM (active)
same,IC50,HEK293 [13],> 20 µM (inactive)
same,IC50,HEK293 [14],> 20 µM (inactive)
same,IC50,[15],> 80 µM (inactive)
same,IC50,Jurkat,> 80 µM (inactive)
same,IC50,HEK293 [16],13.8 µM (active)
same,IC50,HEK293 [17],2.36 µM (active)
